Assay results from BindingDB's records for doi:10.1016/j.bmcl.2010.01.039 (Institute of Science and Technology, 2010).
pIC50: −log10 of the molar value.

Target: T1, Receptor-type tyrosine-protein kinase FLT3 (Homo sapiens, UniProt P36888)
T1 sequence (P36888 whole entry): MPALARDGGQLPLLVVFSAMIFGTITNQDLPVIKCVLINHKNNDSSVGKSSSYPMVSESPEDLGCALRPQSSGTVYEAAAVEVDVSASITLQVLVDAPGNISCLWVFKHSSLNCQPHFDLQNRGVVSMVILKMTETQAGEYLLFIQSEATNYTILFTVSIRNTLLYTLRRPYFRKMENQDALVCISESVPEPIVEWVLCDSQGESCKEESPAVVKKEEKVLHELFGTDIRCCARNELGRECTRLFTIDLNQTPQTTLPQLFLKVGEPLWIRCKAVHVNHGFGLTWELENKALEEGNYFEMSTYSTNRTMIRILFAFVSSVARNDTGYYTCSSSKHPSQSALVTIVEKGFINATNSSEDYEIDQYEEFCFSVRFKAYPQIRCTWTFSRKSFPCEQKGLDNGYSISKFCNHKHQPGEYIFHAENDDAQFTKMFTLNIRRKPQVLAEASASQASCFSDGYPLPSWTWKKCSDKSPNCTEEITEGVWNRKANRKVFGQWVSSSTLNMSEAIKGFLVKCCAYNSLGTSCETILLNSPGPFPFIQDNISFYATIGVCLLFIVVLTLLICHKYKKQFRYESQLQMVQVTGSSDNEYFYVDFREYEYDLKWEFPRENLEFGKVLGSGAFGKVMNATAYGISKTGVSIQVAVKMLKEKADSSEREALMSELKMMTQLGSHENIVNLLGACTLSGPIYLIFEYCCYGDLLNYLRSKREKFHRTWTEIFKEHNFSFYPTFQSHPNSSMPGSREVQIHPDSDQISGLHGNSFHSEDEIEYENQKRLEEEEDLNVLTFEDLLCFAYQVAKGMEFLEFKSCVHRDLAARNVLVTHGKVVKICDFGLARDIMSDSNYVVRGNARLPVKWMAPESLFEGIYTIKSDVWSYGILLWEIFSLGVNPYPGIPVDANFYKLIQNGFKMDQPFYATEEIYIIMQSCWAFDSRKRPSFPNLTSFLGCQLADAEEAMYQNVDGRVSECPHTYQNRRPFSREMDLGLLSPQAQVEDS
Test: Inhibition of FLT3 by HTRF assay

pIC50	Structure (SMILES)
< 5.00	Cc1cc(Cl)cc2c1NC(=O)C2c1[nH]c2ccccc2c1N=O (centres undefined) [5'-Chloro-7'-methyl-1H,1'H-[2,3']biindolylidene-3,2'-dione 3-oxime]
< 5.00	O=Nc1c(C2C(=O)Nc3ccc(OC(F)(F)F)cc32)[nH]c2ccccc12 (centres undefined) [5'-Trifluoromethoxy-1H,1'H-[2,3']biindolylidene-3,2'-dione 3-oxime]
< 5.00	O=C1N=c2ccc([N+](=O)[O-])cc2=C1c1[nH]c2ccccc2c1O [(Z)-5'-Nitro-1H,1'H-[2,3']biindolylidene-3,2'-dione]
< 5.00	O=Nc1c(C2C(=O)Nc3ccc([N+](=O)[O-])cc32)[nH]c2ccc(Br)cc12 (centres undefined) [(Z)-5-Bromo-5'-nitro-1H,1'H-[2,3']biindolylidene-3,2'-dione 3-oxime]
